Patent US5223504A, “Xanthine compounds and compositions, and methods of using them” (Laboratorios Almirall SA, priority 1989, dated 1993)

Experiments:
PDE IV = test: Guinea-pig right ventricle strips sensitized with a PDE III inhibitor (e.g. amrinone): increase in developed tension (PDE IV inhibitory activity); type: cell-based; conditions: concentration causing 50% increase in developed tension; strips pre-treated with selective PDE III inhibitor (e.g. amrinone) 10 minutes before; 37° C., 1 Hz; read-out: Guinea-Pig Sensitized right ventricle strips (EC50μ M)
Method: (§1) There is, however, a synergistic interaction between selective PDE III and PDE IV inhibitors in guinea-pig ventricle. […] There were then mounted in organ baths containing modified Krebs-Henseleit solution of the following composition (mM): NaCl 118; NaHCO3 25; Glucose 11; KCl 5.4; CaCl2 2.5; NaH2PO4 1.2 and MgCl2 0.8. The physiological buffer was maintained at 37° C. and continually aerated with 95% O2 / 5% CO2 v/v. The preparations were placed under 1 g resting tension and electrically stimulated to contract at 1 Hz whilst force of contraction was measured using an isometric force transducer. Preparations were equilibrated for 60 minutes during which they were washed every 15 minutes with fresh buffer. […] Concentrations causing a 50% increase (EC50) were calculated.

PDE III = molecular target: T1, PDE III (Cavia porcellus, UniProt H0VIU9); test: Non-sensitized guinea-pig right ventricle strips: increase in developed tension (PDE III inhibitory activity); type: cell-based; conditions: concentration causing 50% increase in developed tension; untreated (non-sensitized) strips; 37° C., 1 Hz; read-out: Guinea-Pig Non-Sensitized right ventricle strips (EC50μ M)
T1 construct: their hearts were removed and 2 ventricular preparations; from tissue; host or cells: guinea-pig right ventricle strips
T1 sequence (H0VIU9 1-1132): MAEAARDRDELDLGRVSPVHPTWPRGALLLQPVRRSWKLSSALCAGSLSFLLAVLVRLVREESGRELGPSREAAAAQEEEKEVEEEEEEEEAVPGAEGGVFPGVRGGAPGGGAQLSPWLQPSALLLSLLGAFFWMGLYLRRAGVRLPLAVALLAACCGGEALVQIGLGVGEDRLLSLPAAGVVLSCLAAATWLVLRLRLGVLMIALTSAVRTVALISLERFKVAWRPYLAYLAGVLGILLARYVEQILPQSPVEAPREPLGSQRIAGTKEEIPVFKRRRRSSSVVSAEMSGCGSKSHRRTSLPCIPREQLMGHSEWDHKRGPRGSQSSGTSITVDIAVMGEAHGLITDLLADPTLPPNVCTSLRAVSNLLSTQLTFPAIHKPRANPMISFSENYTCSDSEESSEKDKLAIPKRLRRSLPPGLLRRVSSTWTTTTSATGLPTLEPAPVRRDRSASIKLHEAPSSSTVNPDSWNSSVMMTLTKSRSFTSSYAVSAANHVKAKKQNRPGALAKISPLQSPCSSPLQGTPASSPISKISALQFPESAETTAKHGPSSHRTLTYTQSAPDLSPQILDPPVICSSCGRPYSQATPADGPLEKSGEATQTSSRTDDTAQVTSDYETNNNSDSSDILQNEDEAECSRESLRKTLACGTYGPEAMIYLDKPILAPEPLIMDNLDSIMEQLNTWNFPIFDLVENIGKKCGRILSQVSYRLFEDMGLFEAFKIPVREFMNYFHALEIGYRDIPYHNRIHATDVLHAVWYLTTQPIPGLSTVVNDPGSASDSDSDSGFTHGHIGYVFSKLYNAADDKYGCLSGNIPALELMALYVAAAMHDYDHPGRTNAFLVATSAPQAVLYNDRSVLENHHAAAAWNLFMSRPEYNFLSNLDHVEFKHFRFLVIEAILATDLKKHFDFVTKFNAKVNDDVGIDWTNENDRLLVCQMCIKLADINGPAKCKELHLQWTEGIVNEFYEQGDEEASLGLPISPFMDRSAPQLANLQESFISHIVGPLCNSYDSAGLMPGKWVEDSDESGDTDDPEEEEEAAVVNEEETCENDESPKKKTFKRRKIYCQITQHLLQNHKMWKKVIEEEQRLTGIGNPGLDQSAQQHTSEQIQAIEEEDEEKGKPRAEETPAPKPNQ
Method: as §1

[1] = tested on: isolated guinea-pig ventricles; conditions: literature (Gristwood and Owen, Br. J. Pharmacol., 87, 91P., 1985); cited from earlier work

Compound	EC50 (PDE IV)	EC50 (PDE III)	inotropic response in isolated guinea-pig ventricles [1]
CCCn1c(=O)c2[nH]cnc2n(-c2ccc(Cl)cc2)c1=O [Compound 1, 1-n-propyl-3-(4-chlorophenyl)-xanthine]	1.6 µM	> 100 µM	–
CCCn1c(=O)c2[nH]cnc2n(-c2cccc(Cl)c2)c1=O [Compound 2]	0.1 µM	> 100 µM	–
CCCn1c(=O)c2[nH]cnc2n(-c2ccc(Br)cc2)c1=O [Compound 5]	0.9 µM	> 100 µM	–
CCCn1c(=O)c2[nH]cnc2n(-c2cccc(OC)c2)c1=O [Compound 9]	0.2 µM	> 100 µM	–
CCCn1c(=O)c2[nH]cnc2n(-c2cccc([N+](=O)[O-])c2)c1=O [Compound 10]	0.4 µM	> 100 µM	–
CCCn1c(=O)c2[nH]cnc2n(-c2ccc(Cl)c(Cl)c2)c1=O [Compound 12, 1-n-propyl-3-(3,4-dicholorophenyl)-xanthine]	1.3 µM	> 100 µM	–
CCCCn1c(=O)c2[nH]cnc2n(-c2ccc(F)cc2)c1=O [Compound 18]	0.2 µM	> 100 µM	–
CCCCn1c(=O)c2[nH]cnc2n(-c2ccc(OC)cc2)c1=O [Compound 20]	0.3 µM	> 100 µM	–
CCCCn1c(=O)c2[nH]cnc2n(-c2cccc(OC)c2)c1=O [Compound 21, 1-n-butyl-3-(3-methoxyphenyl)-xanthine]	1.2 µM	> 100 µM	–
CCCCCCn1c(=O)c2[nH]cnc2n(-c2ccc3c(c2)OCO3)c1=O [Compound 36, 1-n-hexyl-3-(3,4-methylenedioxyphenyl)-xanthine]	1 µM	> 100 µM	–
Cn1c(=O)c2[nH]cnc2n(-c2ccccc2)c1=O [Compound A, 1methyl-3-phenylxanthine, reference compound]	8.9 µM	> 100 µM	–
CCCn1c(=O)c2[nH]c(C)nc2n(-c2ccccc2)c1=O [Compound B, 1propyl-3-phenyl-8-methylxanthine, reference compound]	7 µM	> 100 µM	–
CC(=O)Nc1ccc(-c2c[nH]c(=O)cn2)cc1 [SK&F 94120]	–	–	produce a positive inotropic response
Cn1c(=O)c2[nH]cnc2n(C)c1=O [THEOPHYLLINE, reference compound]	1520 µM	1000 µM	–
COc1ccc(C2CNC(=O)C2)cc1OC1CCCC1 (stereo not shown) [rolipram]	–	–	have no effect
